In PubChem BioAssay (NCI):
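Exposure lasted 48 hours, with cells grown in 96-well plates and compounds tested at five concentrations. At the TGI there is no net growth.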

How the values were obtained:
Assay in all cases: inhibition of tumour cell growth, NCI panel, 48 h
CCRF-CEM leukemia = system: CCRF-CEM leukemia
COLO 205 colon = system: COLO 205 colon
HCC-2998 colon = system: HCC-2998 colon
HCT-116 colon = system: HCT-116 colon
HOP-62 NSCLC = system: HOP-62 NSCLC
HOP-92 NSCLC = system: HOP-92 NSCLC
KM12 colon = system: KM12 colon
LOX IMVI melanoma = system: LOX IMVI melanoma
MCF7 breast = system: MCF7 breast
MDA-MB-231 breast = system: MDA-MB-231 breast
MDA-MB-435 = system: MDA-MB-435
MDA-N = system: MDA-N
NCI-H522 lung = system: NCI-H522 lung
RPMI-8226 leukemia = system: RPMI-8226 leukemia
SK-MEL-2 melanoma = system: SK-MEL-2 melanoma
SNB-75 CNS = system: SNB-75 CNS
BT-549 breast = system: BT-549 breast
SNB-19 CNS = system: SNB-19 CNS
U251 CNS = system: U251 CNS

| SMILES | TGI (CCRF-CEM leukemia) [µM] | TGI (COLO 205 colon) [µM] | TGI (HCC-2998 colon) [µM] | TGI (HCT-116 colon) [µM] | TGI (HOP-62 NSCLC) [µM] | TGI (HOP-92 NSCLC) [µM] | TGI (KM12 colon) [µM] | TGI (LOX IMVI melanoma) [µM] | TGI (MCF7 breast) [µM] | TGI (MDA-MB-231 breast) [µM] | TGI (MDA-MB-435) [µM] | TGI (MDA-N) [µM] | TGI (NCI-H522 lung) [µM] | TGI (RPMI-8226 leukemia) [µM] | TGI (SK-MEL-2 melanoma) [µM] | TGI (SNB-75 CNS) [µM] | TGI (BT-549 breast) [µM] | TGI (SNB-19 CNS) [µM] | TGI (U251 CNS) [µM] |
| --- | --- | --- | --- | --- | --- | --- | --- | --- | --- | --- | --- | --- | --- | --- | --- | --- | --- | --- | --- |
| CCOC(=O)Cn1sc2ncc([N+](=O)[O-])cc2c1=O | 5.41 | 25.6 | 32.2 | 31.1 | 30 | 26.9 | 34.3 | 26.4 | 35.3 | 29.3 | 30 | 24.9 | 39.5 | > 100 | 70.9 | 89.1 | – | – | – |
| C/C(=N\NC(=S)N1CC2CCC(CC2)C1)c1ccncn1 | – | < 0.0333 | – | 1.5 | 12.1 | 3.9 | 3.16 | 3.1 | 7.61 | – | 5.9 | 15.4 | 2.32 | – | 5.39 | 3.4 | 3.54 | 15 | 6.23 |
| CC1=CC(=O)NCCN1C | > 100 | > 100 | > 100 | > 100 | > 100 | > 100 | > 100 | > 100 | – | – | – | – | > 100 | – | > 100 | > 100 | – | > 100 | > 100 |
| CCCCCCCCCCCCCCCCCc1cccc(OCOCCOC)c1CO | > 100 | > 100 | > 100 | > 100 | > 100 | > 100 | > 100 | – | > 100 | > 100 | > 100 | – | > 100 | > 100 | > 100 | > 100 | > 100 | > 100 | > 100 |
| CC1=CC(=O)NP(=O)(Oc2ccc(C)cc2)N1 (stereo unspecified) | > 100 | > 100 | – | > 100 | > 100 | > 100 | > 100 | > 100 | – | – | – | – | > 100 | > 100 | > 100 | > 100 | – | > 100 | > 100 |
| O=C1SCC(O)=C1/C=N/Nc1nc2ccccc2o1 | 48.8 | 81 | > 100 | 50 | > 100 | 81.7 | > 100 | > 100 | > 100 | > 100 | > 100 | > 100 | – | – | > 100 | – | – | > 100 | – |
| CCOC(=O)C(Cl)(NC(=O)c1ccc(F)cc1)C(F)(F)F (stereo unspecified) | > 100 | > 100 | > 100 | > 100 | > 100 | > 100 | > 100 | > 100 | > 100 | > 100 | > 100 | > 100 | > 100 | > 100 | > 100 | > 100 | – | > 100 | > 100 |
| N#CCCN(c1ccc(/C=C2\N=C(c3ccc(Cl)cc3)OC2=O)cc1)S(=O)(=O)c1ccccc1 | – | > 100 | > 100 | > 100 | > 100 | – | > 100 | > 100 | – | – | – | – | > 100 | > 100 | > 100 | > 100 | – | > 100 | > 100 |
| O=C1CCC(c2ccccc2)C(O)(C(=O)O)C1 (stereo unspecified) | > 100 | > 100 | > 100 | > 100 | > 100 | > 100 | > 100 | > 100 | – | – | – | – | > 100 | > 100 | > 100 | > 100 | – | > 100 | > 100 |
| CC1CN=C(Nc2ccc(S(N)(=O)=O)cc2)S1 (stereo unspecified) | > 100 | > 100 | > 100 | > 100 | > 100 | > 100 | > 100 | > 10 | > 100 | > 100 | – | > 10 | – | > 100 | > 100 | > 100 | – | > 100 | > 100 |
| Cc1cc(=O)[nH]c(NNC(C#N)c2ccc(O)cc2)n1 (stereo unspecified) | > 100 | > 100 | – | > 100 | > 100 | > 100 | > 100 | > 100 | – | – | – | – | > 100 | > 100 | > 100 | > 100 | – | – | > 100 |
| CC(=O)NCc1nc(C#N)c(N)o1 | > 100 | > 100 | > 100 | > 100 | > 100 | > 100 | > 100 | > 100 | > 100 | > 100 | > 100 | > 100 | > 100 | > 100 | > 100 | > 100 | – | > 100 | > 100 |
| CCOC(=O)c1c(SC(=O)/C=C/c2ccccc2)n(-c2ccccc2)c(=S)n(-c2ccccc2)c1=O | > 100 | > 100 | > 100 | > 100 | > 100 | > 100 | > 100 | > 100 | > 100 | > 100 | > 100 | – | > 100 | – | – | > 100 | – | > 100 | > 100 |
| O=C(c1ccccc1)c1c2ccccn2c2cccc[n+]12 | > 100 | > 100 | > 100 | > 100 | > 100 | > 100 | > 100 | > 100 | > 100 | > 100 | > 100 | – | – | > 100 | > 100 | > 100 | > 100 | – | > 100 |
| O=P(c1ccccc1)(c1ccccc1)C(NCc1ccccc1)c1ccc(F)cc1 (stereo unspecified) | 48.6 | 29.7 | 29.6 | 25.7 | 42.6 | 26.6 | 29.1 | 28 | – | 26.1 | 23 | 33.1 | 25.2 | > 100 | 29 | 48.3 | – | 33.5 | 30 |
